# Source: patent US5654290A, “Polyunsaturated fatty acid based drugs” (Institut National de la Sante et de la Recherche Medicale, priority 1992, dated 1997)
# How the values were obtained:
# platelets [1] = settings: cited from earlier work
# platelets [2] = settings: concentrations which do not bring the TXA2/PGH2 receptor into play; cited from earlier work
# TXA2 /PGH2 receptor [3] = settings: cited from earlier work
# [4] = system: alpha2 -adrenergic receptor; settings: platelet membranes; cited from earlier work
# platelets [5] = settings: concentrations which do not bring the TXA2/PGH2 receptor into play; cited from earlier work; remark: listed apart in the source
# TXA2 /PGH2 receptor [6] = settings: whole platelets or solubilized platelet membranes; cited from earlier work
# kidney = experiment: Capture by the kidney, in rats, of lyso-PCDHA and non-esterified DHA; type: in vivo; settings: 20-day-old rat, intravenous; lyso-PCDHA vs non-esterified DHA
# Excerpt: (§1) FIG. 3 represents the variation of the radio-activity recovered in the total lipids: A from the brain, B from the kidney, C from the heart and D from the liver, after injecting tritiated DHA in free form (black circle) or in the form of 2-DHA-1-lyso-PC (black triangle).
# (§2) The animal studied is a 20-day-old rat in which the cerebral lipid metabolism is at its peak.
# (§3) The lyso-PC's are labelled on the fatty acid and the choline, attached to albumin and administered intravenously (50). […] It therefore appears that the lyso-PCDHA's attached to albumin constitute a particularly preferred form of supply of DHA to the developing brain.
# heart = experiment: Capture by the heart, in rats, of lyso-PCDHA and non-esterified DHA; type: in vivo; settings: 20-day-old rat, intravenous; lyso-PCDHA vs non-esterified DHA
# Excerpt: as §1, §2, §3
# liver = experiment: Capture by the liver, in rats, of lyso-PCDHA and non-esterified DHA; type: in vivo; settings: 20-day-old rat, intravenous; lyso-PCDHA vs non-esterified DHA
# Excerpt: as §1, §2, §3
# brain [7] = experiment: Distribution of the radioactivity between the lipid classes of the brain after intravenous injection of lyso-PCDHA or non-esterified DHA; type: in vivo, rat; settings: for radioactivity in OTHERS of the brain / radioactivity in AG of the brain / radioactivity in DG of the brain / radioactivity in LN of the brain / radioactivity in Lyso-PC of the brain / radioactivity in MG of the brain / radioactivity in PC of the brain / radioactivity in PE of the brain / radioactivity in PS of the brain / radioactivity in Pi of the brain / radioactivity in TG of the brain: injection of Lyso-PCDHA
# Excerpt: as §2, §3
# brain [8] = experiment: Capture by the brain, in rats, of lyso-PC's; type: in vivo; settings: 20-day-old rat, intravenous, attached to albumin; compared with lyso-PC's comprising 18:1, 18:2 and 20:4
# Excerpt: as §1, §2, §3
# [9] = incorporation in vitro into the platelet lipid reserves, by means of albumin
compound,measurement,setting,value
"CC/C=C\C/C=C\C/C=C\C/C=C\C/C=C\CCCC(=O)O [20:5n-3, eicosapentanoic acid]",aggregability of the platelets in response to U 46.619,platelets [1]; [9],loss of aggregability of the platelets in response to U 46.619
same,inhibition of platelet aggregation induced by U 46.619,platelets [1]; non-esterified fatty acid,competitively inhibit platelet aggregation induced by U 46.619
same,effect on platelet aggregation induced by ionophore A 23187,platelets [2],none of these fatty acids affects the platelet aggregation
same,affinity of U 46.619 for its receptor,TXA2 /PGH2 receptor [3]; [9],decrease in the affinity of the agonist for its receptor
same,inhibition of specific binding of U 46.619 to washed platelets,TXA2 /PGH2 receptor [3]; non-esterified fatty acid,competitively inhibit
same,effect on binding of yohimbine to alpha2-adrenergic receptor,[4],do not modify binding of yohimbine
same,effect on platelet aggregation induced by thrombin,platelets [5],none of these fatty acids affects the platelet aggregation
same,alteration of the TXA2 /PGH2 receptor,TXA2 /PGH2 receptor [6],specifically alter the TXA2 /PGH2 receptor
"CC/C=C\C/C=C\C/C=C\C/C=C\C/C=C\C/C=C\CCC(=O)OC(CO)COP(=O)([O-])OCC[N+](C)(C)C (stereo not shown) [lyso-PCDHA, 1-lyso-2-DHA-glycerophosphocholine]",capture by the kidney,kidney,captures the two forms of supply in essentially the same manner
same,capture by the heart,heart,do not capture the lyso-PCDHA's as effectively as the non-esterified DHA
same,capture by the liver,liver,do not capture the lyso-PCDHA's as effectively as the non-esterified DHA
same,esterification in the phosphatidylethanolamines,"brain [7]; brain, rat, after injection","very rapidly, a differential esterification is produced in the phosphatidylethanolamines"
same,reacylation of DHA in the phosphatidylcholines,"brain [7]; brain, rat, first stages after the injection",low and is visible only in the first stages after the injection
same,radioactivity in OTHERS of the brain,brain [7],3.7 % of the radioactivity of the total lipids
same,radioactivity in AG of the brain,brain [7]; 2.5 min,15.3 % of the radioactivity of the total lipids
same,radioactivity in DG of the brain,brain [7]; 2.5 min,10.8 % of the radioactivity of the total lipids
same,radioactivity in LN of the brain,brain [7]; 2.5 min,29.3 % of the radioactivity of the total lipids
same,radioactivity in Lyso-PC of the brain,brain [7]; 2.5 min,4.1 % of the radioactivity of the total lipids
same,radioactivity in MG of the brain,brain [7]; 2.5 min,2.2 % of the radioactivity of the total lipids
same,radioactivity in PC of the brain,brain [7]; 2.5 min,25.6 % of the radioactivity of the total lipids
same,radioactivity in PE of the brain,brain [7]; 2.5 min,28.2 % of the radioactivity of the total lipids
same,radioactivity in PS of the brain,brain [7]; 2.5 min,3.9 % of the radioactivity of the total lipids
same,radioactivity in Pi of the brain,brain [7]; 2.5 min,8.9 % of the radioactivity of the total lipids
same,radioactivity in TG of the brain,brain [7]; 2.5 min,1.0 % of the radioactivity of the total lipids
same,radioactivity in AG of the brain,brain [7]; 5 min,21.2 % of the radioactivity of the total lipids
same,radioactivity in DG of the brain,brain [7]; 5 min,9.3 % of the radioactivity of the total lipids
same,radioactivity in LN of the brain,brain [7]; 5 min,35.3 % of the radioactivity of the total lipids
same,radioactivity in Lyso-PC of the brain,brain [7]; 5 min,0.4 % of the radioactivity of the total lipids
same,radioactivity in MG of the brain,brain [7]; 5 min,2.3 % of the radioactivity of the total lipids
same,radioactivity in OTHERS of the brain,brain [7]; 5 min,11.4 % of the radioactivity of the total lipids
same,radioactivity in PC of the brain,brain [7]; 5 min,17.8 % of the radioactivity of the total lipids
same,radioactivity in PE of the brain,brain [7]; 5 min,26.3 % of the radioactivity of the total lipids
same,radioactivity in PS of the brain,brain [7]; 5 min,5.3 % of the radioactivity of the total lipids
same,radioactivity in Pi of the brain,brain [7]; 5 min,3.4 % of the radioactivity of the total lipids
same,radioactivity in TG of the brain,brain [7]; 5 min,2.5 % of the radioactivity of the total lipids
same,radioactivity in AG of the brain,brain [7]; 6.5 min,17.2 % of the radioactivity of the total lipids
same,radioactivity in DG of the brain,brain [7]; 6.5 min,9.4 % of the radioactivity of the total lipids
same,radioactivity in LN of the brain,brain [7]; 6.5 min,31.6 % of the radioactivity of the total lipids
same,radioactivity in Lyso-PC of the brain,brain [7]; 6.5 min,1.2 % of the radioactivity of the total lipids
same,radioactivity in MG of the brain,brain [7]; 6.5 min,2.7 % of the radioactivity of the total lipids
same,radioactivity in PC of the brain,brain [7]; 6.5 min,26.2 % of the radioactivity of the total lipids
same,radioactivity in PE of the brain,brain [7]; 6.5 min,28.1 % of the radioactivity of the total lipids
same,radioactivity in PS of the brain,brain [7]; 6.5 min,5.3 % of the radioactivity of the total lipids
same,radioactivity in Pi of the brain,brain [7]; 6.5 min,3.7 % of the radioactivity of the total lipids
same,radioactivity in TG of the brain,brain [7]; 6.5 min,2.3 % of the radioactivity of the total lipids
same,radioactivity in AG of the brain,brain [7]; 15 min,13.9 % of the radioactivity of the total lipids
same,radioactivity in DG of the brain,brain [7]; 15 min,5.8 % of the radioactivity of the total lipids
same,radioactivity in LN of the brain,brain [7]; 15 min,23.7 % of the radioactivity of the total lipids
same,radioactivity in Lyso-PC of the brain,brain [7]; 15 min,0.2 % of the radioactivity of the total lipids
same,radioactivity in MG of the brain,brain [7]; 15 min,1.8 % of the radioactivity of the total lipids
same,radioactivity in OTHERS of the brain,brain [7]; 15 min,2.6 % of the radioactivity of the total lipids
same,radioactivity in PC of the brain,brain [7]; 15 min,26.8 % of the radioactivity of the total lipids
same,radioactivity in PE of the brain,brain [7]; 15 min,38.9 % of the radioactivity of the total lipids
same,radioactivity in PS of the brain,brain [7]; 15 min,4.6 % of the radioactivity of the total lipids
same,radioactivity in Pi of the brain,brain [7]; 15 min,3.2 % of the radioactivity of the total lipids
same,radioactivity in TG of the brain,brain [7]; 15 min,2.3 % of the radioactivity of the total lipids
same,radioactivity in AG of the brain,brain [7]; 30 min,11 % of the radioactivity of the total lipids
same,radioactivity in DG of the brain,brain [7]; 30 min,4 % of the radioactivity of the total lipids
same,radioactivity in LN of the brain,brain [7]; 30 min,17.8 % of the radioactivity of the total lipids
same,radioactivity in Lyso-PC of the brain,brain [7]; 30 min,0 % of the radioactivity of the total lipids
same,radioactivity in MG of the brain,brain [7]; 30 min,0.7 % of the radioactivity of the total lipids
same,radioactivity in OTHERS of the brain,brain [7]; 30 min,3.8 % of the radioactivity of the total lipids
same,radioactivity in PC of the brain,brain [7]; 30 min,24.1 % of the radioactivity of the total lipids
same,radioactivity in PE of the brain,brain [7]; 30 min,46.4 % of the radioactivity of the total lipids
same,radioactivity in PS of the brain,brain [7]; 30 min,5.0 % of the radioactivity of the total lipids
same,radioactivity in Pi of the brain,brain [7]; 30 min,2.6 % of the radioactivity of the total lipids
same,radioactivity in TG of the brain,brain [7]; 30 min,2.1 % of the radioactivity of the total lipids
same,radioactivity in AG of the brain,brain [7]; 60 min,10.0 % of the radioactivity of the total lipids
same,radioactivity in DG of the brain,brain [7]; 60 min,2.6 % of the radioactivity of the total lipids
same,radioactivity in LN of the brain,brain [7]; 60 min,16.7 % of the radioactivity of the total lipids
same,radioactivity in Lyso-PC of the brain,brain [7]; 60 min,0 % of the radioactivity of the total lipids
same,radioactivity in MG of the brain,brain [7]; 60 min,0.4 % of the radioactivity of the total lipids
same,radioactivity in OTHERS of the brain,brain [7]; 60 min,5.3 % of the radioactivity of the total lipids
same,radioactivity in PC of the brain,brain [7]; 60 min,24.9 % of the radioactivity of the total lipids
same,radioactivity in PE of the brain,brain [7]; 60 min,49.2 % of the radioactivity of the total lipids
same,radioactivity in PS of the brain,brain [7]; 60 min,3.9 % of the radioactivity of the total lipids
same,radioactivity in Pi of the brain,brain [7]; 60 min,2.6 % of the radioactivity of the total lipids
same,radioactivity in TG of the brain,brain [7]; 60 min,1.4 % of the radioactivity of the total lipids
same,capture by the brain,brain [8],particularly well captured by the brain
